Results published in article PMC9519869, “Synthesis, biological evaluation, and molecular modeling studies of new benzoxazole derivatives as PARP-2 inhibitors targeting breast cancer” (Scientific Reports, 2022).

Key:
MDA-MB-231 = experiment: In vitro cytotoxicity screening, MTT assay; details: Homo sapiens, MDA-MB-231, 24 h, read-out: In vitro Cytotoxicity (IC50, µM) MDA-MB-231
Description: Two human breast cancer cell lines, namely, MDA-MB-231 and MCF-7 were obtained from American Type Culture Collection (ATCC) via a holding company for biological products and vaccines (VACSERA), Cairo, Egypt. […] The reagents used were RPMI-1640 medium, MTT, DMSO (sigma co., St. Louis, USA), and Fetal bovine serum (GIBCO, UK). […] MTT is a colorimetric assay based on the conversion of the yellow tetrazolium bromide (MTT) to a purple formazan derivative by mitochondrial succinate dehydrogenase in viable cells. Cell lines were cultured in RPMI-1640 medium with 10% foetal bovine serum. Antibiotics added were 100 units/ml penicillin and 100 µg/ml streptomycin maintained at 37 °C in a 5% CO2 incubator. The cell lines were seeded at a density of approximately 1.0 × 10 ^4 cells/well in a 96-well plate at 37 °C for 48 h under 5% CO2. Different concentrations of compounds were added and incubated for 24 h. After 24 h of drug treatment, 20 µl of MTT staining solution at 5 mg/ml was added to each well and incubated for 4 h at 37 °C. After 4 h, 100 µl of dimethyl sulfoxide (DMSO) were added into each well to dissolve the purple formazan crystals formed. The absorbance was recorded at 570 nm using a plate reader (EXL 800, USA). The relative cell viability in percentage was calculated as (A570 of treated samples/A570 of untreated sample) X 100 [22],[23].

PARP-2 enzyme = molecular target: T1, PARP-2 enzyme (Homo sapiens, UniProt Q9UGN5); experiment: Poly (ADP-ribose) polymerase 2 (PARP-2) inhibition assay (colorimetric kit); assay type: biochemical; details: for IC50: in vitro enzyme assay
T1 construct: purchased BPS Bioscience 80,581
Description: Results were expressed as IC50 values (Table 2).
The PARP-2 inhibitory activity of the test compounds was assayed using PARP-2 Colorimetric Activity Assay Kit (BPS Bioscience, catalog 80,581, San Diego, CA, USA) following the manufacturer’s protocol. Briefly, histone protein mixture was coated on a 96-well microtiter plate and incubated at 4 °C overnight, washed with phosphate-buffered saline with tween-20 (PBST) three times then, the wells were blocked by adding blocking buffer 3 and incubated at room temperature for 60–90 min. After that, the plate was washed with PBST buffer three times. The master mixture which contains the PARP buffer, PARP assay mixture, activated DNA and distilled water was added to each well then, the inhibitor solution (test compound) was added. The reaction was initiated by adding PARP-2 enzyme to the wells and the plate was incubated for 1 h at room temperature. After 1 h, the reaction mixture was discarded, and the plate was washed with PBST buffer three times. Finally, the plate was treated with Streptavidin–Horseradish Peroxidase (HRP) and incubated for 30 min at room temperature and then washed with PBST buffer. The colorimetric HRP substrate was added to each well and incubated at room temperature until the positive control well developed blue color. Sulphuric acid was added to each well after the blue color development. The absorbance was read at 450 nm using UV/Vis spectrophotometer microplate reader.
Suppl. S2. In vitro PARP-2 enzyme inhibition assay
Researcher : Dr. Nadeen Ghobashy email:elghobashynadeen@gmail.com mob.01008873340
Reader : ROBONIK P2000 Eliza Reader wl 450 nm

T1 sequence (Q9UGN5 whole entry): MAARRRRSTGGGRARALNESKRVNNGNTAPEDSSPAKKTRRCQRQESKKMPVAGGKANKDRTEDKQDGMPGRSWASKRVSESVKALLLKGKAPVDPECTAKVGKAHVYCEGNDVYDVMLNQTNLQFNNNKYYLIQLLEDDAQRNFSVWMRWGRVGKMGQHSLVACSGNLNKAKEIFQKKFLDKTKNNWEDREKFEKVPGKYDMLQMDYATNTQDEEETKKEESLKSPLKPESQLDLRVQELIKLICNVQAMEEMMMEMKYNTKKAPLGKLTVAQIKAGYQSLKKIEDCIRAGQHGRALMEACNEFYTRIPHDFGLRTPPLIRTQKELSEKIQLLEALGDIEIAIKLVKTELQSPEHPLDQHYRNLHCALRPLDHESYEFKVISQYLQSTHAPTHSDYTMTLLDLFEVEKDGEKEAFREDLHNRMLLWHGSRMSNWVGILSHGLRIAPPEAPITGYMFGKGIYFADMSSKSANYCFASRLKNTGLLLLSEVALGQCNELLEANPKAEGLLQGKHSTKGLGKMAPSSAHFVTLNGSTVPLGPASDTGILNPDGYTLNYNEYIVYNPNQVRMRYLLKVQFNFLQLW

Row | SMILES | melting point | IC50 (MDA-MB-231) | %inh of PARP-2 (Table S2 raw data) (PARP-2 enzyme; conc 0.01 (ng/ml)) | %inh of PARP-2 (Table S2 raw data) (PARP-2 enzyme; conc 0.1 (ng/ml)) | %inh of PARP-2 (Table S2 raw data) (PARP-2 enzyme; conc 1 (ng/ml)) | %inh of PARP-2 (Table S2 raw data) (PARP-2 enzyme; conc 10 (ng/ml)) | IC50 (PARP-2 enzyme)
1 | O=C(CCl)Nc1ccc(-c2nc3cc(Cl)ccc3o2)cc1 [Compound 4, 2-chloro-N-(4-(5-chlorobenzoxazol-2-yl)phenyl)acetamide] | 218 to 220 °C | 43.2 ± 2.7 µM |  |  |  |  | 
2 | CCN(CC)CC(=O)Nc1ccc(-c2nc3cc(Cl)ccc3o2)cc1 [Compound 26, N-(4-(5-chlorobenzoxazol-2-yl)phenyl)-2-(diethylamino)acetamide] | 133 to 135 °C | 18.6 ± 1.3 µM | 21.36% | 38.75% | 55.9% | 86.92% | 0.292 ± 0.016 µM
3 | CCN1CCN(CC(=O)Nc2ccc(-c3nc4cc(Cl)ccc4o3)cc2)CC1 [Compound 9, N-(4-(5-chlorobenzoxazol-2-yl)phenyl)-2-(4-ethylpiperazin-1-yl)acetamide] | 153 to 155 °C | 39.5 ± 2.6 µM |  |  |  |  | 
4 | O=C(CCN1CCN(Cc2ccccc2)CC1)Nc1ccc(-c2nc3cc(Cl)ccc3o2)cc1 [Compound 15, 3-(4-benzylpiperazin-1-yl)-N-(4-(5-chlorobenzoxazol-2-yl)phenyl)propanamide] | 182 to 184 °C | 35.3 ± 2.5 µM |  |  |  |  | 
5 | O=C(CNCCCc1ccccc1)Nc1ccc(-c2nc3cc(Cl)ccc3o2)cc1 [Compound 22, N-(4-(5-chlorobenzoxazol-2-yl)phenyl)-2-((3-phenylpropyl)amino)acetamide] | 93 to 95 °C | 17.4 ± 1.4 µM | 27.08% | 33.43% | 58.97% | 86.49% | 0.267 ± 0.015 µM
6 | O=C(CN1CCCCC1)Nc1ccc(-c2nc3cc(Cl)ccc3o2)cc1 [Compound 6, N-(4-(5-chlorobenzoxazol-2-yl)phenyl)-2-(piperidin-1-yl)acetamide] | 180 to 182 °C | 42.5 ± 2.8 µM |  |  |  |  | 
7 | O=C(CN1CCN(Cc2ccccc2)CC1)Nc1ccc(-c2nc3cc(Cl)ccc3o2)cc1 [Compound 10, 2-(4-benzylpiperazin-1-yl)-N-(4-(5-chlorobenzoxazol-2-yl)phenyl)acetamide] | 195 to 197 °C | 71.7 ± 3.5 µM |  |  |  |  | 
8 | O=C(CNCc1ccccc1)Nc1ccc(-c2nc3cc(Cl)ccc3o2)cc1 [Compound 20, 2-(benzylamino)-N-(4-(5-chlorobenzoxazol-2-yl)phenyl)acetamide] | 158 to 160 °C | 47.6 ± 2.8 µM |  |  |  |  | 
9 | Nc1ccc(-c2nc3cc(Cl)ccc3o2)cc1 [Compound 3, 4-(5-chlorobenzoxazol-2-yl)aniline] |  | 24 ± 1.8 µM |  |  |  |  | 
10 | COc1ccccc1N1CCN(CC(=O)Nc2ccc(-c3nc4cc(Cl)ccc4o3)cc2)CC1 [Compound 17, N-(4-(5-chlorobenzoxazol-2-yl)phenyl)-2-(4-(2-methoxyphenyl)piperazin-1-yl)acetamide] | 218 to 220 °C | 48 ± 2.9 µM |  |  |  |  | 
11 | CN1CCN(CC(=O)Nc2ccc(-c3nc4cc(Cl)ccc4o3)cc2)CC1 [Compound 8, N-(4-(5-chlorobenzoxazol-2-yl)phenyl)-2-(4-methylpiperazin-1-yl)acetamide] | 179 to 181 °C | 30.9 ± 2.3 µM |  |  |  |  | 
12 | O=C(CN1CCN(c2ccccc2)CC1)Nc1ccc(-c2nc3cc(Cl)ccc3o2)cc1 [Compound 16, N-(4-(5-chlorobenzoxazol-2-yl)phenyl)-2-(4-phenylpiperazin-1-yl)acetamide] | 231 to 233 °C | 78.8 ± 3.8 µM |  |  |  |  | 
13 | O=C(CCNCc1ccccc1)Nc1ccc(-c2nc3cc(Cl)ccc3o2)cc1 [Compound 23, 3-(benzylamino)-N-(4-(5-chlorobenzoxazol-2-yl)phenyl)propanamide] | 109 to 111 °C | 62.1 ± 3.4 µM |  |  |  |  | 
14 | CNC(=O)c1cc(Oc2ccc(NC(=O)Nc3ccc(Cl)c(C(F)(F)F)c3)cc2)ccn1 [Sorafenib, reference compound] |  | 7.47 ± 0.3 µM |  |  |  |  | 
15 | CC(=O)c1nnn(-c2ccc(-c3nc4cc(Cl)ccc4o3)cc2)c1C [Compound 30, 1-(1-(4-(5-chlorobenzoxazol-2-yl)phenyl)-5-methyl-1H-1,2,3-triazol-4-yl)ethan-1-one] | 212 to 214 °C | 73.9 ± 3.6 µM |  |  |  |  | 
16 | O=C(CCNCCCc1ccccc1)Nc1ccc(-c2nc3cc(Cl)ccc3o2)cc1 [Compound 25, N-(4-(5-chlorobenzoxazol-2-yl)phenyl)-3-((3-phenylpropyl)amino)propanamide] | 87 to 89 °C | 15.6 ± 1.2 µM | 36.11% | 47.92% | 73.45% | 88.59% | 0.074 ± 0.004 µM
17 | O=C(CNCCc1ccccc1)Nc1ccc(-c2nc3cc(Cl)ccc3o2)cc1 [Compound 21, N-(4-(5-chlorobenzoxazol-2-yl)phenyl)-2-(phenethylamino)acetamide] | 129 to 131 °C | 12.2 ± 1 µM | 20.88% | 36.15% | 52.41% | 81.94% | 0.406 ± 0.022 µM
18 | CCOC(=O)c1nnn(-c2ccc(-c3nc4cc(Cl)ccc4o3)cc2)c1C [Compound 29, Ethyl 1-(4-(5-chlorobenzoxazol-2-yl)phenyl)-5-methyl-1H-1,2,3-triazole-4-carboxylate] | 251 to 253 °C | 76 ± 3.8 µM |  |  |  |  | 
19 | O=C(CCNCCc1ccccc1)Nc1ccc(-c2nc3cc(Cl)ccc3o2)cc1 [Compound 24, N-(4-(5-chlorobenzoxazol-2-yl)phenyl)-3-(phenethylamino)propanamide] | 73 to 75 °C | 26.5 ± 2.1 µM |  |  |  |  | 
20 | CCN1CCN(CCC(=O)Nc2ccc(-c3nc4cc(Cl)ccc4o3)cc2)CC1 [Compound 14, N-(4-(5-chlorobenzoxazol-2-yl)phenyl)-3-(4-ethylpiperazin-1-yl)propanamide] | 167 to 169 °C | 10.8 ± 0.9 µM | 33.28% | 46.83% | 75.72% | 90.54% | 0.084 ± 0.005 µM
21 | [N-]=[N+]=Nc1ccc(-c2nc3cc(Cl)ccc3o2)cc1 [Compound 28, 2-(4-azidophenyl)-5-chlorobenzoxazole] | 167 to 169 °C | > 100 µM |  |  |  |  | 
22 | O=C(CN1CCOCC1)Nc1ccc(-c2nc3cc(Cl)ccc3o2)cc1 [Compound 7, N-(4-(5-chlorobenzoxazol-2-yl)phenyl)-2-morpholinoacetamide] | 178 to 180 °C | 51.6 ± 3 µM |  |  |  |  | 
23 | COc1ccccc1N1CCN(CCC(=O)Nc2ccc(-c3nc4cc(Cl)ccc4o3)cc2)CC1 [Compound 19, N-(4-(5-chlorobenzoxazol-2-yl)phenyl)-3-(4-(2-methoxyphenyl)piperazin-1-yl)propanamide] | 211 to 213 °C | 22.5 ± 1.9 µM |  |  |  |  | 
24 | O=C(CCCl)Nc1ccc(-c2nc3cc(Cl)ccc3o2)cc1 [Compound 5, 3-chloro-N-(4-(5-chlorobenzoxazol-2-yl)phenyl)propanamide] | 210 to 212 °C | 55.7 ± 3.2 µM |  |  |  |  | 
25 | O=C(CCN1CCN(c2ccccc2)CC1)Nc1ccc(-c2nc3cc(Cl)ccc3o2)cc1 [Compound 18, N-(4-(5-chlorobenzoxazol-2-yl)phenyl)-3-(4-phenylpiperazin-1-yl)propanamide] | 239 to 241 °C | 19.2 ± 1.6 µM |  |  |  |  | 
